Test results: the supplement of paper PMC10307832

Legend:
Experiment in all cases: relative viability (nuclei count vs DMSO), 5 days (fraction); higher = more cells survive
Vismodegib = compound: CS(=O)(=O)c1ccc(C(=O)Nc2ccc(Cl)c(-c3ccccn3)c2)c(Cl)c1 [Vismodegib]
How it was run: (§1)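 Viability is treated-well nuclei as a fraction of vehicle-well nuclei, reported as the median across plates. Before counting, lung cancer cell lines were kept overnight at 37 °C in 1536-well plates, pinned with five √10-spaced library-drug doses on vehicle-anchored plates, and left 5 days without medium change, then fixed, permeabilised and Hoechst-stained in one step, imaged at 4× and counted by MetaXpress. A plate passed only if control CV was below 25% and at least one doubling occurred.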

VE-821 = compound: CS(=O)(=O)c1ccc(-c2cnc(N)c(C(=O)Nc3ccccc3)n2)cc1 [VE-821]
How it was run: as §1

Ruxolitinib = compound: N#CC[C@H](C1CCCC1)n1cc(-c2ncnc3[nH]ccc23)cn1 [Ruxolitinib]
How it was run: as §1

VE-821 + Foretinib = compound: CS(=O)(=O)c1ccc(-c2cnc(N)c(C(=O)Nc3ccccc3)n2)cc1 [VE-821] + COc1cc2c(Oc3ccc(NC(=O)C4(C(=O)Nc5ccc(F)cc5)CC4)cc3F)ccnc2cc1OCCCN1CCOCC1 [Foretinib] (partner 0.25 µM)
How it was run: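 Five library-drug doses in √10 steps were combined with a fixed anchor-drug dose, or a single drug was given alone, by pin tool to lung cancer cell lines in 1536-well plates the day after seeding. Nuclei were stained and counted after 5 days. Relative viability is the nuclei count in treated wells over that in vehicle wells, taken as the median of duplicate plates.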

Row | Cell Line | relative viability (Vismodegib; 0.08 µM) | relative viability (Vismodegib; 0.253 µM) | relative viability (Vismodegib; 0.8 µM) | relative viability (Vismodegib; 2.53 µM) | relative viability (Vismodegib; 8 µM) | relative viability (VE-821; 0.08 µM) | relative viability (VE-821; 0.253 µM) | relative viability (VE-821; 0.8 µM) | relative viability (VE-821; 2.53 µM) | relative viability (VE-821; 8 µM) | relative viability (Ruxolitinib; 0.08 µM) | relative viability (Ruxolitinib; 0.253 µM) | relative viability (Ruxolitinib; 0.8 µM) | relative viability (Ruxolitinib; 2.53 µM) | relative viability (Ruxolitinib; 8 µM) | relative viability (VE-821 + Foretinib; first compound 0.08 µM) | relative viability (VE-821 + Foretinib; first compound 0.253 µM) | relative viability (VE-821 + Foretinib; first compound 0.8 µM) | relative viability (VE-821 + Foretinib; first compound 2.53 µM) | relative viability (VE-821 + Foretinib; first compound 8 µM)
1 | NCI-H3122 | 0.962 | 1.01 | 0.904 | 0.973 | 0.92 | 1.02 | 1.01 | 0.982 | 1.01 | 0.933 | 0.986 | 1.03 | 1.01 | 0.868 | 0.915 | 0.977 | 0.995 | 0.959 | 0.986 | 0.925
2 | CAL-12T | 1.01 | 0.955 | 0.976 | 0.945 | 0.959 | 1.02 | 0.947 | 1.04 | 0.927 | 0.844 | 0.918 | 0.997 | 1.11 | 0.792 | 0.696 | 1.27 | 1.09 | 1.01 | 0.976 | 0.92
3 | HARA | 1 | 0.883 | 0.883 | 0.971 | 0.954 | 1.09 | 0.747 | 0.954 | 1.12 | 0.812 | 0.936 | 1.01 | 1.03 | 0.935 | 0.88 | 1.06 | 0.888 | 0.798 | 0.812 | 0.574
4 | NCI-H1666 | 0.931 | 0.928 | 1 | 0.955 | 1.07 | 1.02 | 0.952 | 1.01 | 1.1 | 0.853 | 1 | 0.987 | 1.07 | 0.884 | 1.1 | 0.97 | 1.02 | 1.04 | 1.03 | 0.783
5 | NCI-H460 | 1.01 | 0.979 | 1 | 0.981 | 1.03 | 1.05 | 0.983 | 0.947 | 0.82 | 0.56 | 1.03 | 1.06 | 1.07 | 1 | 0.96 | 1.02 | 0.979 | 0.841 | 0.919 | 0.17
6 | NCI-H2087 | 0.946 | 0.969 | 0.941 | 1.09 | 0.906 | 1.16 | 0.871 | 0.958 | 1.32 | 1.05 | 1.04 | 0.957 | 1.12 | 0.935 | 0.941 | 1.12 | 0.982 | 1.22 | 1.33 | 1
7 | Calu-6 | 1.03 | 0.957 | 1.03 | 1.01 | 1.05 | 1.13 | 0.97 | 0.905 | 0.937 | 0.607 | 1.03 | 1.03 | 1.12 | 0.893 | 0.67 | 0.94 | 0.932 | 0.821 | 0.767 | 0.753
8 | IA-LM | 0.883 | 0.963 | 0.964 | 0.85 | 0.876 | 1.02 | 0.874 | 0.999 | 1.06 | 0.808 | 0.855 | 1.02 | 1.08 | 1.05 | 0.888 | 1.2 | 0.957 | 1.15 | 1.04 | 1.03
9 | NCI-H1355 | 0.947 | 0.992 | 0.904 | 0.99 | 0.93 | 1.05 | 0.919 | 0.963 | 1.04 | 0.604 | 1.07 | 0.962 | 0.957 | 0.922 | 0.918 | 1.04 | 0.942 | 0.768 | 1.01 | 0.729
10 | NCI-H838 | 0.906 | 0.893 | 0.941 | 0.947 | 0.973 | 1.06 | 0.887 | 0.902 | 1.01 | 0.791 | 0.918 | 0.897 | 0.832 | 0.567 | 0.478 | 1.21 | 0.946 | 0.892 | 1.13 | 0.877
11 | SW 1573 | 0.969 | 0.931 | 1.05 | 0.959 | 0.985 | 1.1 | 1.04 | 1.02 | 1.06 | 0.788 | 1.02 | 0.929 | 1.14 | 0.865 | 0.85 | 0.96 | 0.853 | 0.861 | 0.815 | 0.87
12 | NCI-H2085 | 0.977 | 0.995 | 0.994 | 0.997 | 0.937 | 1.03 | 0.973 | 0.843 | 1.14 | 0.946 | 1.03 | 1.01 | 1.09 | 0.901 | 0.876 | 1.05 | 0.915 | 0.863 | 1.01 | 0.812
13 | NCI-H1651 | 0.945 | 0.976 | 0.947 | 0.956 | 1.02 | 0.976 | 0.954 | 0.922 | 0.977 | 0.969 | 0.948 | 0.978 | 0.971 | 0.939 | 0.976 | 0.72 | 0.838 | 0.662 | 0.885 | 1.02
14 | NCI-H1993 | 0.807 | 0.916 | 0.859 | 0.875 | 0.87 | 0.92 | 0.844 | 0.916 | 0.929 | 0.692 | 0.872 | 0.774 | 1.04 | 1 | 0.771 | 0.84 | 0.736 | 0.595 | 0.737 | 0.724
15 | NCI-H2126 | 0.994 | 0.962 | 0.949 | 0.968 | 0.927 | 1.02 | 0.924 | 0.966 | 0.96 | 0.729 | 1 | 1.02 | 1.09 | 1.12 | 0.986 | 1.38 | 1.1 | 1.21 | 1.1 | 0.764
16 | NCI-H1793 | – | 0.857 | 0.96 | 0.904 | 0.784 | 0.996 | 0.744 | 0.747 | 1.16 | 0.713 | 0.972 | 0.928 | 1.12 | 0.946 | 0.699 | 0.749 | 0.669 | 0.589 | 0.85 | 0.55
